IC50 data for one compound are collected here from publication PMC9487482, “Activity of Tricyclic Pyrrolopyrimidine Gyrase B Inhibitor against Mycobacterium abscessus” (Antimicrobial Agents and Chemotherapy, 2022).

The target in the test is T1, DNA gyrase subunit B (GyrB) (Mycobacteroides abscessus, UniProt B1ME45).
T1 construct: recombinant M. abscessus ATCC 19977 DNA gyrase (A2B2 heterotetramer); with DNA gyrase subunit A (GyrA)
The test is described as follows: DNA supercoiling inhibition assay (relaxed pBR322, agarose gel). In kind it is biochemical.

T1 sequence (B1ME45 entry or part of it): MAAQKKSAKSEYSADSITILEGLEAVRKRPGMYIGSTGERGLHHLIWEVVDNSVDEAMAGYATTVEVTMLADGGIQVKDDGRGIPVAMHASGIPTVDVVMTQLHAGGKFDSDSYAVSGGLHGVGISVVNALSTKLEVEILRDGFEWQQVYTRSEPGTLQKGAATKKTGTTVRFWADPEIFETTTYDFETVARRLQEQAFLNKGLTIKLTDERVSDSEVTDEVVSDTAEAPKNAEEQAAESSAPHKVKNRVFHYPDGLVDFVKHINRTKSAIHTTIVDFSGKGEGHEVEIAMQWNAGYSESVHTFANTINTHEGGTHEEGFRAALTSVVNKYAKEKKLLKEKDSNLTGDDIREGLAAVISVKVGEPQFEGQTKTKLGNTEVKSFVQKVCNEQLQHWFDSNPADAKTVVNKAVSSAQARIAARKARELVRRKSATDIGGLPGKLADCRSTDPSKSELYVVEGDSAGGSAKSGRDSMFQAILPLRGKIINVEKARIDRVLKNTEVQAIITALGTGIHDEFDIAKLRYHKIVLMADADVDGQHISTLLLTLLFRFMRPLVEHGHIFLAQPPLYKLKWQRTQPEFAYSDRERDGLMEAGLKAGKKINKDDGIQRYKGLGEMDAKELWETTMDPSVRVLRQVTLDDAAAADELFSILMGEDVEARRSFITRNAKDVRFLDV
T1 sequence (B1ME58 entry or part of it, further chain): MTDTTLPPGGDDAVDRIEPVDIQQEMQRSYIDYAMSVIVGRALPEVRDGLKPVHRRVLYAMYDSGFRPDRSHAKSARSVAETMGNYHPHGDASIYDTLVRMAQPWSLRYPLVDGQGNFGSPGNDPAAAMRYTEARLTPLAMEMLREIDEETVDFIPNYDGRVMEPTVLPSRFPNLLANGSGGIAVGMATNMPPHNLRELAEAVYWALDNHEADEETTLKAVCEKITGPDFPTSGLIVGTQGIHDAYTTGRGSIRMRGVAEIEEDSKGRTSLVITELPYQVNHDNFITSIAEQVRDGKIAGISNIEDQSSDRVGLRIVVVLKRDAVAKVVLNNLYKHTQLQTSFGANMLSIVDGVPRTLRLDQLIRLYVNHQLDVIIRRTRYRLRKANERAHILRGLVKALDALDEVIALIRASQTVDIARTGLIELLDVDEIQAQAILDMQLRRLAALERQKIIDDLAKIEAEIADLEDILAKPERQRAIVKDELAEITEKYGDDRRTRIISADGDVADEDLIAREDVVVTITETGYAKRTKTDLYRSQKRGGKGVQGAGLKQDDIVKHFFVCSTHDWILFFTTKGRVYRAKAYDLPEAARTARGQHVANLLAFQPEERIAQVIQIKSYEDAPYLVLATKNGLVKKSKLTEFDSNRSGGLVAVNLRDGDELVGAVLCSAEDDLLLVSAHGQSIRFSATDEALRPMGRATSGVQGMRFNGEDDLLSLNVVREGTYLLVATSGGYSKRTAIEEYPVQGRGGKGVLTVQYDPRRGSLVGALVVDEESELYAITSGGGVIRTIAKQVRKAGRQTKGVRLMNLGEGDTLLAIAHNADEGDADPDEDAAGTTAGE

Turning to `CCNC(=O)Nc1nc2cc(-c3cnc(C(C)(C)O)nc3)c(F)c([C@H]3CCCO3)c2[nH]1` [SPR719], the IC50 (in general, the concentration that gives 50% inhibition) came to 1 µM.
